The test system of data set [1] is JAK1. To be noted: cited from earlier work.
Data set [2] deals with JAK2. The note with it: JAK1 over JAK2; cited from earlier work.
Data set [3] can be described thus: Pharmacokinetic study in rats (oral and intravenous), filgotinib quantified from dried blood spots by LC-MS/MS. To be noted: male, Sprague Dawley, whole blood (dried blood spots), rat, DBS blood. Type of data set: in vivo. How it is done: Freshly drawn rat blood was used to prepare the DBS cards. With the help of a calibrated pipette, 25 μL of the respective spiked CC/QC blood or whole blood collected from the pharmacokinetic study (post administration of filgotinib by intravenous and oral routes) was sampled on DBS card. Spiked cards were allowed to dry at ambient room temperature for 3 h and stored appropriately in a sealed bag with desiccant in a desiccator.
Using a hole puncher (Harri-Micro-Punch®), 3 mm diameter disc was punched from the center of each DBS (FTA DMPK-C Card) card directly into micro-centrifuge tubes. To each micro-centrifuge tube, 200 μL of 0.2% formic acid enriched with 100 ng/mL of IS was added, thereafter the contents were vortex mixed for 5 min (Thermomixer®, Eppendorf) and sonicated (Elmasonic S300 H) for 15 min at ambient room temperature. After sonication, to the same micro-centrifuge, 1.0 mL of ethyl acetate was added and the mixtures were vortexed further for 3 min. The samples were centrifuged at 14,000 rpm for 3 min. Clear organic layer (800 μL) was pipetted out after centrifugation and dried under gentle stream of nitrogen (Turbovap®, Zymark®,Kopkinton, MA, USA) at 50 °C. The residue was reconstituted with 200 μL of 0.2% formic acid in acetonitrile and 150 μL clear supernatant was aliquoted into a HPLC vial and 5.0 μL was injected onto the column for LC-MS/MS analysis.
All the animal experiments were approved by Institutional Animal Ethical Committee (IAEC/JDC/2019/189R). Male Sprague Dawley rats (n=8) were procured from Vivo Biotech, Hyderabad, India. The animals were housed in Jubilant Biosys animal house facility in a temperature (22 ± 2 °C) and humidity (30-70%) controlled room (15 air changes/hour) with a 12:12 h light:dark cycles, had free access to rodent feed (Altromin Spezialfutter GmbH & Co. KG., Im Seelenkamp 20, D-32791, Lage, Germany) and water for one week before using for experimental purpose. Following ~12 h fast (during the fasting period animals had free access to water) animals were divided into two groups having four rats in each group. Group I animals (205-210) received filgotinib orally as a suspension formulation (prepared using Tween-80 and 0.5% methyl cellulose) at 10 mg/kg (strength: 1.0 mg/mL; dose volume: 10 mL/kg), whereas Group II animals (215-225 g) received filgotinib intravenously (5% DMSO, 5% Solutol:absolute alcohol (1:1, v/v) and 90% of normal saline; strength: 0.5 mg/ml; dose volume: 4 ml/kg) at 2.0 mg/kg dose. Post-dosing serial blood samples (50 μL) were collected through retro-orbital plexus into polypropylene tubes containing K2.EDTA solution as an anti-coagulant at 0.25, 0.5, 1, 2, 4, 8, 10, 12 and 24 h (for oral study) and 0.083, 0.25, 0.5, 1, 2, 4, 8 and 24 h (for intravenous study). Animals were allowed to access feed 2 h post-dosing.
Blood concentration-time data of filgotinib was analyzed by non-compartmental method and the relevant pharmacokinetic parameters namely AUC0-∞ (area under the blood concentration-time curve from time zero to infinite time), C0 (extrapolated blood concentration at time zero), Cmax (maximum blood concentration), Tmax (time to reach Cmax), Vd (volume of distribution), CL (clearance) and t½ (terminal half-life) were calculated using Phoenix WinNonlin software (version 8.1; Pharsight Corporation, Mountain View, CA). Absolute oral bioavailability (F) was calculated using this formula [Dose (i.v.) × AUC(0-∞)oral / Dose (oral) × AUC(0-∞)i.v.] × 100.

Details of data set [4]: method as in Dixit et al. (2020) [10]. The note with it: rat, plasma, values in parentheses, ref Dixit et al. (2020) [10], cited from earlier work.
A short description of data set [5]: Stability of primary stock solutions in DMSO. The class given is physicochemical. To be noted: primary stock in DMSO stored at -20 °C. How it is done: Two separate primary stock solutions of filgotinib were prepared at 1670 μg/mL in DMSO. Appropriate secondary and working stocks of filgotinib were prepared from primary stock by successive dilution of primary stock with methanol:water (80:20, v/v) to prepare the calibration curve (CC) and quality controls (QCs). The IS primary stock solution was made in DMSO at a concentration of 1000 μg/mL, which was diluted with methanol to 500 ng/mL and subsequently used as IS working stock solution. […] Working stock solutions were stored at 4 °C for 25 days.

The subject of data set [6] is rheumatoid arthritis patients. Also noted: method as in PMID 29566740. The note with it: monotherapy at 100 or 200 mg once daily or with methotrexate; cited from earlier work.
Data set [7] deals with collagen-induced arthritis model. Also on record: method as in PMID 24006460. The note with it: post oral administration in rodents; cited from earlier work.
For data set [8], the system named is rheumatoid arthritis. Also noted: method as in PMID 26994322. To be noted: approved pan-JAK inhibitors, moderate to severe rheumatoid arthritis; cited from earlier work.

Like-named read-outs stand apart in the source and are kept apart here.

By IC50 is commonly meant the concentration that gives 50% inhibition. What is called AUC(0-inf) is total exposure, with the tail of the curve extrapolated. The low end stands for low exposure, the high end for high exposure. As a reminder, the half-life is how long it takes for the measured level to halve. Read a high half-life as slow decline. For orientation: bioavailability means the share of a dose that reaches the circulation, judged against a reference dose that is usually intravenous. As usually defined, the Cmax is the peak of the concentration-time curve. The Tmax is the time from dosing to the highest level. Take `O=C(Nc1nc2cccc(-c3ccc(CN4CCS(=O)(=O)CC4)cc3)n2n1)C1CC1` [filgotinib]: the IC50 in data set [1] is […]. For the same compound, the “selectivity over JAK2” value in data set [2] is […]. In data set [3] (intravenous, 2.0 mg/kg), this compound showed a total exposure AUC(0-inf) of […], a Vd of […], a clearance of […] and a half-life of […]. Besides, the C0 in data set [3] (intravenous, 2.0 mg/kg, extrapolated concentration at time zero) was […]. Further, the bioavailability in data set [3] (oral 10 mg/kg vs intravenous 2.0 mg/kg, read-out: F (absolute oral bioavailability)) came to 42.5%. Further, in data set [3] (oral, 10 mg/kg), the AUC(0-inf) worked out at […], the concentration peaked (Cmax) at […], the Tmax came out at […] and the half-life is […]. Moreover, in data set [4] (intravenous, 2.0 mg/kg), the “AUC(0-∞)” value is […], the C0 was […], the CL is […] and the T1/2 was […]. For the same compound, the Vd in data set [4] (intravenous, 2.0 mg/kg) is 5.41 ± 0.77 L/kg. Moreover, in data set [4] (oral, 10 mg/kg), the “AUC(0-∞)” value was […], the Cmax is […], the “F (absolute oral bioavailability)” value is on record as 36.3% and the T1/2 was […]. For the same compound, the “time primary stock solution found to be stable” value in data set [5] is on record as […]. Further, in data set [6], the “tolerability, efficacy and safety in Phase-3 clinical trials” value was “well tolerated, showed efficacy and was found to be safe”. Further, in data set [7], the “disease progression in a collagen-induced arthritis model” value was “dose-dependent reduction of disease progression”.
Regarding `CCS(=O)(=O)N1CC(CC#N)(n2cc(-c3ncnc4[nH]ccc34)cn2)C1` [baricitinib], the toxicities entry in data set [8] is recorded as “dose-related toxicities”.
For the compound `C[C@@H]1CCN(C(=O)CC#N)C[C@@H]1N(C)c1ncnc2[nH]ccc12` [Tofacitinib, tofacitinib], the toxicities entry in data set [8] is recorded as “dose-related toxicities”. For the same compound, in data set [5], the “time primary stock solution found to be stable” value worked out at 50 days.

Values taken from PMC8915582, “Validated DBS method for filgotinib quantitation in rat dried blood spots and its application to a pharmacokinetic study in rats” (ADMET & DMPK, 2020).
